Laboratory results published in the OligoGym collection.
HELM strings list units from the 5' end as sugar, base in round brackets, then linkage (d deoxyribose, r ribose, m 2'-O-methyl, p phosphodiester). Strings are as the collection lists them, not checked against the first reports. ss, as = sense and antisense strand; [s4r] = 4'-thioribose; [fl2r] = 2'-fluoro

Conditions: siRNA
Also: test system not given here.

Substance	target mRNA knockdown
RNA1{m(A)p.r(G)p.m(A)p.r(A)p.m(G)p.r(U)p.m(A)p.r(C)p.m(C)p.r(A)p.m(G)p.r(G)p.m(A)p.r(G)p.m(G)p.r(C)p.m(G)p.r(U)p.m(U)p.r(T)p.r(T)}|RNA2{r(A)p.r(A)p.r(C)p.r(G)p.r(C)p.r(C)p.r(U)p.r(C)p.r(C)p.r(U)p.r(G)p.r(G)p.r(U)p.r(A)p.r(C)p.r(U)p.r(U)p.r(C)p.r(U)p.r(T)p.r(T)}$$$RNA1{StrandType:ss}|RNA2{StrandType:as}$	24%
RNA1{r(C)p.[fl2r](U)p.r(A)p.r(G)p.r(A)p.r(G)p.r(G)p.r(A)p.r(U)p.r(C)p.r(U)p.r(U)p.r(G)p.r(A)p.r(A)p.r(G)p.r(A)p.r(C)p.r(C)p.r(T)p.r(T)}|RNA2{r(G)p.r(G)p.r(U)p.r(C)p.r(U)p.r(U)p.r(C)p.r(A)p.r(A)p.r(G)p.r(A)p.r(U)p.r(C)p.r(C)p.r(U)p.r(C)p.r(U)p.r(A)p.r(G)p.r(T)p.r(T)}$$$RNA1{StrandType:ss}|RNA2{StrandType:as}$	81%
RNA1{r(C)p.[fl2r](U)p.r(A)p.r(G)p.r(A)p.r(G)p.r(G)p.[fl2r](A)p.r(U)p.r(C)p.r(U)p.[fl2r](U)p.r(G)p.r(A)p.r(A)p.r(G)p.r(A)p.r(C)p.r(C)p.r(T)p.r(T)}|RNA2{r(G)p.r(G)p.r(U)p.r(C)p.r(U)p.r(U)p.r(C)p.r(A)p.r(A)p.r(G)p.r(A)p.r(U)p.r(C)p.r(C)p.r(U)p.r(C)p.[fl2r](U)p.r(A)p.r(G)p.r(T)p.r(T)}$$$RNA1{StrandType:ss}|RNA2{StrandType:as}$	78%
RNA1{m(A)p.m(A)p.r(C)p.r(C)p.r(C)p.m(A)p.r(C)p.r(C)p.m(A)p.r(C)p.m(A)p.r(G)p.r(C)p.m(U)p.m(A)p.r(G)p.m(A)p.m(A)p.r(C)p.m(U)p.m(U)}|RNA2{m(A)p.m(A)p.r(G)p.m(U)p.m(U)p.r(C)p.m(U)p.m(A)p.r(G)p.r(C)p.m(U)p.r(G)p.m(U)p.r(G)p.r(G)p.m(U)p.r(G)p.r(G)p.r(G)p.m(U)p.m(U)}$$$RNA1{StrandType:ss}|RNA2{StrandType:as}$	7%
RNA1{r(G)p.r(C)p.r(C)p.r(U)p.[fl2r](C)p.r(U)p.r(C)p.[fl2r](U)p.r(A)p.r(U)p.r(C)p.r(C)p.r(U)p.[fl2r](U)p.r(A)p.r(G)p.r(C)p.r(U)p.r(U)p.r(T)p.r(T)}|RNA2{r(A)p.r(A)p.r(G)p.r(C)p.[fl2r](U)p.r(A)p.r(A)p.r(G)p.r(G)p.r(A)p.[fl2r](U)p.r(A)p.r(G)p.r(A)p.r(G)p.r(A)p.r(G)p.r(G)p.r(C)p.r(T)p.r(T)}$$$RNA1{StrandType:ss}|RNA2{StrandType:as}$	47%
RNA1{r(U)p.m(U)p.r(A)p.r(C)p.r(A)p.r(A)p.r(A)p.r(G)p.r(G)p.r(A)p.r(U)p.r(C)p.r(U)p.r(C)p.r(C)p.r(U)p.r(C)p.r(C)p.r(C)p.r(T)p.r(T)}|RNA2{r(G)p.r(G)p.r(G)p.r(A)p.r(G)p.r(G)p.r(A)p.r(G)p.r(A)p.r(U)p.r(C)p.r(C)p.r(U)p.r(U)p.r(U)p.r(G)p.m(U)p.r(A)p.r(A)p.r(T)p.r(T)}$$$RNA1{StrandType:ss}|RNA2{StrandType:as}$	69%
RNA1{r(A)p.m(U)p.m(C)p.r(G)p.r(A)p.m(C)p.m(C)p.m(U)p.r(G)p.r(A)p.r(A)p.r(G)p.r(G)p.r(A)p.r(G)p.m(U)p.r(A)p.m(C)p.r(G)p.r(T)p.r(T)}|RNA2{m(C)p.r(G)p.m(U)p.r(A)p.m(C)p.m(U)p.m(C)p.m(C)p.m(U)p.m(U)p.m(C)p.r(A)p.r(G)p.r(G)p.m(U)p.m(C)p.r(G)p.r(A)p.m(U)p.r(T)p.r(T)}$$$RNA1{StrandType:ss}|RNA2{StrandType:as}$	19%
RNA1{m(U)p.r(A)p.r(C)p.r(C)p.r(G)p.r(A)p.r(G)p.r(A)p.r(A)p.r(U)p.r(G)p.r(A)p.r(G)p.r(C)p.r(C)p.r(U)p.r(G)p.r(A)p.r(U)p.r(T)p.r(T)}|RNA2{r(A)p.r(U)p.r(C)p.r(A)p.r(G)p.r(G)p.r(C)p.r(U)p.r(C)p.r(A)p.r(U)p.r(U)p.r(C)p.r(U)p.r(C)p.r(G)p.r(G)p.m(U)p.r(A)p.r(T)p.r(T)}$$$RNA1{StrandType:ss}|RNA2{StrandType:as}$	55%
RNA1{r(U)p.r(G)p.r(A)p.r(A)p.r(C)p.r(G)p.r(U)p.m(C)p.r(A)p.r(C)p.r(C)p.r(G)p.r(A)p.r(G)p.r(G)p.r(A)p.r(G)p.r(A)p.r(A)p.r(T)p.r(T)}|RNA2{r(U)p.r(U)p.r(C)p.r(U)p.r(C)p.r(C)p.r(U)p.r(C)p.r(G)p.r(G)p.r(U)p.r(G)p.r(A)p.r(C)p.r(G)p.r(U)p.r(U)p.m(C)p.r(A)p.r(T)p.r(T)}$$$RNA1{StrandType:ss}|RNA2{StrandType:as}$	85%
RNA1{r(A)p.r(A)p.r(C)p.r(C)p.r(C)p.r(A)p.r(C)p.r(C)p.r(A)p.r(C)p.r(A)p.r(G)p.r(C)p.r(U)p.r(A)p.r(G)p.r(A)p.r(A)p.r(C)p.r(U)p.r(U)}|RNA2{r(A)p.r(A)p.r(G)p.[fl2r](U)p.[fl2r](U)p.r(C)p.[fl2r](U)p.r(A)p.r(G)p.r(C)p.r(U)p.r(G)p.[fl2r](U)p.r(G)p.r(G)p.[fl2r](U)p.r(G)p.r(G)p.r(G)p.[fl2r](U)p.[fl2r](U)}$$$RNA1{StrandType:ss}|RNA2{StrandType:as}$	14%
RNA1{r(G)p.r(A)p.r(A)p.r(A)p.r(C)p.m(U)p.m(G)p.r(G)p.m(U)p.r(A)p.r(C)p.m(U)p.r(U)p.r(U)p.r(C)p.r(C)p.r(C)p.r(C)p.r(C)p.r(T)p.r(T)}|RNA2{r(G)p.r(G)p.r(G)p.r(G)p.r(G)p.r(A)p.r(A)p.r(A)p.r(G)p.m(U)p.r(A)p.r(C)p.m(C)p.m(A)p.r(G)p.r(U)p.r(U)p.r(U)p.r(C)p.r(T)p.r(T)}$$$RNA1{StrandType:ss}|RNA2{StrandType:as}$	85%
RNA1{m(C)p.r(U)p.m(C)p.r(U)p.m(G)p.r(G)p.m(C)p.r(C)p.m(U)p.m(U)p.r(U)p.r(C)p.m(U)p.r(C)p.m(U)p.r(C)p.m(U)p.r(A)p.m(G)p.r(T)p.r(T)}|RNA2{r(C)p.r(U)p.r(A)p.r(G)p.r(A)p.r(G)p.r(A)p.r(G)p.r(A)p.r(A)p.r(A)p.r(G)p.r(G)p.r(C)p.r(C)p.r(A)p.r(G)p.r(A)p.r(G)p.r(T)p.r(T)}$$$RNA1{StrandType:ss}|RNA2{StrandType:as}$	24%
RNA1{[s4r](C)p.[s4r](G)p.[s4r](U)p.[s4r](A)p.r(C)p.r(G)p.r(C)p.r(G)p.r(G)p.r(A)p.r(A)p.r(U)p.r(A)p.r(C)p.r(U)p.r(U)p.r(C)p.r(G)p.r(A)p.r(T)p.r(T)}|RNA2{r(U)p.r(C)p.r(G)p.r(A)p.r(A)p.r(G)p.r(U)p.r(A)p.r(U)p.r(U)p.r(C)p.r(C)p.r(G)p.r(C)p.r(G)p.[s4r](U)p.[s4r](A)p.[s4r](C)p.[s4r](G)p.r(T)p.r(T)}$$$RNA1{StrandType:ss}|RNA2{StrandType:as}$	86.1%
RNA1{r(G)p.r(G)p.m(U)p.m(A)p.r(G)p.r(A)p.r(A)p.m(U)p.r(A)p.r(G)p.r(G)p.r(U)p.r(U)p.r(U)p.r(U)p.r(C)p.r(C)p.r(C)p.r(C)p.r(T)p.r(T)}|RNA2{r(G)p.r(G)p.r(G)p.r(G)p.r(A)p.r(A)p.r(A)p.r(A)p.r(C)p.r(C)p.m(U)p.r(A)p.r(U)p.r(U)p.r(C)p.m(U)p.r(A)p.r(C)p.r(C)p.r(T)p.r(T)}$$$RNA1{StrandType:ss}|RNA2{StrandType:as}$	45%
RNA1{m(A)p.r(U)p.m(C)p.r(A)p.m(C)p.r(A)p.m(A)p.r(A)p.m(C)p.r(C)p.m(C)p.r(C)p.m(U)p.r(A)p.m(G)p.r(A)p.m(G)p.r(G)p.m(G)p.r(T)p.r(T)}|RNA2{r(C)p.r(C)p.r(C)p.r(U)p.r(C)p.r(U)p.r(A)p.r(G)p.r(G)p.r(G)p.r(G)p.r(U)p.r(U)p.r(U)p.r(G)p.r(U)p.r(G)p.r(A)p.r(U)p.r(T)p.r(T)}$$$RNA1{StrandType:ss}|RNA2{StrandType:as}$	9%
RNA1{r(G)p.r(G)p.m(U)p.r(A)p.r(G)p.r(G)p.r(G)p.r(U)p.m(U)p.r(G)p.r(A)p.r(A)p.r(G)p.r(A)p.r(G)p.r(A)p.r(C)p.r(U)p.r(U)p.r(T)p.r(T)}|RNA2{r(A)p.r(A)p.r(G)p.r(U)p.r(C)p.r(U)p.r(C)p.r(U)p.r(U)p.m(C)p.r(A)p.r(A)p.r(C)p.r(C)p.r(C)p.m(U)p.r(A)p.r(C)p.r(C)p.r(T)p.r(T)}$$$RNA1{StrandType:ss}|RNA2{StrandType:as}$	94%
RNA1{r(A)p.r(U)p.r(C)p.r(A)p.r(G)p.r(A)p.r(G)p.r(G)p.r(G)p.r(A)p.r(G)p.r(G)p.r(U)p.r(C)p.r(U)p.m(U)p.r(A)p.r(G)p.r(A)p.r(T)p.r(T)}|RNA2{r(U)p.r(C)p.m(U)p.r(A)p.r(A)p.r(G)p.r(A)p.r(C)p.r(C)p.r(U)p.r(C)p.r(C)p.r(C)p.r(U)p.r(C)p.r(U)p.r(G)p.r(A)p.r(U)p.r(T)p.r(T)}$$$RNA1{StrandType:ss}|RNA2{StrandType:as}$	69%
RNA1{r(G)p.r(C)p.r(U)p.r(G)p.r(A)p.r(G)p.r(G)p.r(A)p.r(A)p.r(A)p.r(G)p.r(G)p.r(G)p.r(A)p.r(C)p.r(A)p.r(U)p.r(C)p.r(U)p.r(T)p.r(T)}|RNA2{r(A)p.r(G)p.m(A)p.m(U)p.r(G)p.r(U)p.r(C)p.r(C)p.r(C)p.r(U)p.r(U)p.r(U)p.r(C)p.r(C)p.r(U)p.r(C)p.r(A)p.r(G)p.r(C)p.r(T)p.r(T)}$$$RNA1{StrandType:ss}|RNA2{StrandType:as}$	78%
RNA1{r(G)p.r(A)p.r(C)p.r(C)p.r(A)p.r(C)p.r(G)p.r(A)p.r(A)p.r(G)p.r(A)p.r(G)p.r(U)p.[fl2r](U)p.r(A)p.r(A)p.r(C)p.r(C)p.r(C)p.r(T)p.r(T)}|RNA2{r(G)p.r(G)p.r(G)p.r(U)p.[fl2r](U)p.r(A)p.r(A)p.r(C)p.r(U)p.r(C)p.r(U)p.r(U)p.r(C)p.r(G)p.r(U)p.r(G)p.r(G)p.r(U)p.r(C)p.r(T)p.r(T)}$$$RNA1{StrandType:ss}|RNA2{StrandType:as}$	82%
RNA1{[fl2r](A)p.r(C)p.[fl2r](C)p.r(U)p.[fl2r](U)p.r(A)p.[fl2r](A)p.r(G)p.[fl2r](G)p.r(A)p.[fl2r](C)p.r(C)p.[fl2r](A)p.r(C)p.[fl2r](C)p.r(G)p.[fl2r](G)p.r(A)p.[fl2r](U)p.r(T)p.r(T)}|RNA2{[fl2r](A)p.r(U)p.r(C)p.r(C)p.r(G)p.r(G)p.r(U)p.r(G)p.r(G)p.r(U)p.r(C)p.r(C)p.r(U)p.r(U)p.[fl2r](A)p.[fl2r](A)p.r(G)p.r(G)p.r(U)p.r(T)p.r(T)}$$$RNA1{StrandType:ss}|RNA2{StrandType:as}$	41%
